Measurements reported in patent publication US9133139B2, “Fluoroalkyl-1,4-benzodiazepinone compounds” (BRISTOL-MYERS SQUIBB COMPANY, priority 2012, dated 2015).

Legend:
[1] = Human metabolic stability half-life assay (liver microsomes); format: in vitro ADME; settings: pH 7.4, human liver microsomes, CYP-mediated (NADPH-dependent), 0.5 μM compound, 45-minute time course, read-out: HLM (t1/2, min)
Description: Metabolic Stability Half-Life Panel
Result Interpretation Guideline
Incubation with Liver Microsomes
Sample Analysis—Instrumentation

[2] = tested on: TALL-1; test: Human Tumor Xenograft Models in Mice, TALL-1; format: in vivo; settings: for Antitumor Activity in TALL-1 (LCK), QD dosing: oral, TALL-1 xenograft in NOD-SCID mice; for antitumor activity with oral administration (PO): Human Tumor Xenograft Models in mice
Description: Human Tumor Xenograft Models in Mice
Mice were fed food and water ad libitum.
Preclinical Chemotherapy Trials
When death occurred, the day of death was recorded.
In Vivo Antitumor Activity

[3] = tested on: human Notch 1; test: Notch-CBF1 Transactivation Assay (luciferase reporter, transfected HeLa cells), Notch 1; format: cell-based; settings: read-out: Notch 1 (IC50); HeLa cells transfected with truncated Notch 1 and CBF1 luciferase reporter, 18 hours incubation
From the text: Notch-CBF1 Transactivation Assay
The Notch-CBF1 (C-promoter binding factor I) cell based transactivation assay is based on the ability of the released Notch intracellular domain fragments (NICDs) to function as transcription factors in conjunction with CBF1 and other nuclear factors. Luciferase assays were used to measure the antagonism of Notch-CBF1 transcriptional activity. HeLa cervical cancer cells are transiently co-transfected with pCDNA3.1/Hygro plasmids containing truncated Notch 1, Notch 2, Notch 3, or Notch 4 receptors and a PGL3 luciferase reporter vector containing 4 copies of CBF1 binding site. The cells were then tested for Notch-CBF1 activity in the absence or presence of test compounds. HeLa cells, maintained in DMEM (high glucose with HEPES), 1× glutamine/penicillin/streptomycin and 10% Fetal Bovine serum, were transiently transfected in a T175 Flask (4.5×10^6 cells/flask) using the Monster Transfection Kit (Minis #MIR2906) according to manufacturers specifications. Table 2 denotes respective DNA quantity for the transfections.
Assay media (5 μL) containing test compounds in final concentrations ranging from 5 μM to 8.4×10^−5 μM (3 fold serial dilutions) were added to the cells and the cell plates were then incubated for 18 hours at 37° C. and 5% CO2. Control wells contained DMSO vehicle (total counts) or 0.5 μM of an in-house small molecule inhibitor (background counts). Duplicates were used for each sample. Luciferase activity was measured after a 20-minute incubation with 50 μl STEADY-GLO® luciferase reagents according to manufacturer's specifications (Promega, Cat. #E2550) and analyzed by Envision plate reader (PerkinElmer, Boston, Mass.).
The antagonist effect of compounds was expressed as 100×[1−(average sample−average background)/(average total−average background)] where sample is the luciferase activity in the presence of test compound, background is equal to the luciferase activity in the presence of the small molecule inhibitor control and the total is signal induced in DMSO wells.

Row | SMILES | half-life at 0.5 μM [1] | further results
1 | CCC[C@H](C(N)=O)[C@@H](CC(C)C)C(=O)N[C@H]1N=C(c2ccccc2)c2ccccc2N(C)C1=O [Comparative Compound 37, reference compound] | ≤ 8 min | –
2 | C=CC[C@H](C(N)=O)[C@@H](CC(C)C)C(=O)N[C@H]1N=C(c2ccccc2)c2cc(Cl)ccc2N(C)C1=O [Comparative Compound 38, reference compound] | ≤ 8 min | –
3 | CCCC[C@H](C(N)=O)[C@@H](CC(C)C)C(=O)N[C@H]1N=C(c2ccc(Cl)cc2)c2ccccc2N(C)C1=O [Comparative Compound 39, reference compound] | ≤ 8 min | –
4 | C=CC[C@H](C(N)=O)[C@@H](CC(C)C)C(=O)N[C@H]1N=C(c2ccccc2)c2ccccc2N(CCC)C1=O [Comparative Compound 40, reference compound] | ≤ 8 min | –
5 | CN1C(=O)[C@@H](NC(=O)[C@H](CCC(F)(F)F)[C@@H](C(N)=O)c2ccccc2)N=C(c2ccccc2)c2ccccc21 [Example 1, (2R,3R)—N-((3S)-1-Methyl-2-oxo-5-phenyl-2,3-dihydro-1H-1,4-benzodiazepin-3-yl)-3-phenyl-2-(3,3,3-trifluoropropyl)succinamide] | – | Antitumor Activity in TALL-1 (LCK), QD dosing ([2]; Dose 24 (unit not given)): 3.5 LCK; antitumor activity with oral administration (PO) [2]: showed antitumor activity
6 | Cc1nocc1[C@H](C(N)=O)[C@@H](CCC(F)(F)F)C(=O)N[C@H]1N=C(c2ccccc2)c2ccccc2N(C)C1=O [Example 6, (2R,3R)—N1-((S)-1-Methyl-2-oxo-5-phenyl-2,3-dihydro-1H-benzo[e][1,4]diazepin-3-yl)-3-(3-methylisoxazol-4-yl)-2-(3,3,3-trifluoropropyl)succinamide] | ≥ 30 min | –
7 | Cc1nocc1[C@H](C(N)=O)[C@@H](CCC(F)(F)F)C(=O)N[C@H]1N=C(c2ccccc2)c2ccccc2NC1=O [Example 9] | ≥ 30 min | –
8 | Cc1nocc1[C@H](C(N)=O)[C@@H](CCC(F)(F)F)C(=O)N[C@H]1N=C(c2ccccc2)c2ccccc2N(c2ccccn2)C1=O [Example 11, (2R,3R)-3-(3-Methyl-4-isoxazolyl)-N-((3S)-2-oxo-5-phenyl-1-(2-pyridinyl)-2,3-dihydro-1H-1,4-benzodiazepin-3-yl)-2-(3,3,3-trifluoropropyl)succinamide] | ≥ 30 min | IC50 [3]: 12.9 nM
9 | NC(=O)[C@@H](c1ccccc1)[C@@H](CCC(F)(F)F)C(=O)N[C@H]1N=C(c2ccccc2)c2ccccc2N(c2ccccn2)C1=O [Example 12, (2R,3R)—N-((3S)-2-Oxo-5-phenyl-1-(2-pyridinyl)-2,3-dihydro-1H-1,4-benzodiazepin-3-yl)-3-phenyl-2-(3,3,3-trifluoropropyl)succinamide] | – | IC50 [3]: 13.6 nM
10 | Cc1nocc1[C@H](C(N)=O)[C@@H](CCC(F)(F)F)C(=O)N[C@H]1N=C(c2ccccc2)c2cc3c(cc2NC1=O)OCO3 [Example 13, (2R,3R)-3-(3-Methyl-4-isoxazolyl)-N-((7S)-6-oxo-9-phenyl-6,7-dihydro-5H-[1,3]dioxolo[4,5-h][1,4]benzodiazepin-7-yl)-2-(3,3,3-trifluoropropyl)succinamide] | ≥ 30 min | –
11 | COc1ccc(N2C(=O)[C@@H](NC(=O)[C@H](CCC(F)(F)F)[C@@H](C(N)=O)c3conc3C)N=C(c3ccccc3)c3ccccc32)nc1 [Example 14, (2R,3R)—N-((3S)-1-(5-Methoxy-2-pyridinyl)-2-oxo-5-phenyl-2,3-dihydro-1H-1,4-benzodiazepin-3-yl)-3-(3-methyl-4-isoxazolyl)-2-(3,3,3-trifluoropropyl)succinamide] | ≥ 30 min | –
12 | COc1ccc(N2C(=O)[C@@H](NC(=O)[C@H](CCC(F)(F)F)[C@@H](C(N)=O)c3ccccc3)N=C(c3ccccc3)c3ccccc32)nc1 [Example 15, (2R,3R)—N-((3S)-1-(5-Methoxy-2-pyridinyl)-2-oxo-5-phenyl-2,3-dihydro-1H-1,4-benzodiazepin-3-yl)-3-phenyl-2-(3,3,3-trifluoropropyl)succinamide] | – | IC50 [3]: 17.8 nM
13 | COc1cccc(N2C(=O)[C@@H](NC(=O)[C@H](CCC(F)(F)F)[C@@H](C(N)=O)c3ccccc3)N=C(c3ccccc3)c3ccccc32)n1 [Example 16, (2R,3R)—N-((3S)-1-(6-Methoxy-2-pyridinyl)-2-oxo-5-phenyl-2,3-dihydro-1H-1,4-benzodiazepin-3-yl)-3-phenyl-2-(3,3,3-trifluoropropyl)succinamide] | – | IC50 [3]: 16.4 nM
14 | Cc1nocc1[C@H](C(N)=O)[C@@H](CCC(F)(F)F)C(=O)N[C@H]1N=C(c2ccccc2)c2cccc(Cl)c2NC1=O [Example 17, (2R,3R)—N1-((S)-9-Chloro-2-oxo-5-phenyl-2,3-dihydro-1H-benzo[e][1,4]diazepin-3-yl)-3-(3-methylisoxazol-4-yl)-2-(3,3,3-trifluoropropyl)succinamide] | ≥ 30 min | –
15 | COc1cccc2c1NC(=O)[C@@H](NC(=O)[C@H](CCC(F)(F)F)[C@@H](C(N)=O)c1conc1C)N=C2c1ccccc1 [Example 20, (2R,3R)—N1-((S)-9-Methoxy-2-oxo-5-phenyl-2,3-dihydro-1H-benzo[e][1,4]diazepin-3-yl)-3-(3-methylisoxazol-4-yl)-2-(3,3,3-trifluoropropyl)succinamide] | ≥ 30 min | –
16 | COc1cccc2c1NC(=O)[C@@H](NC(=O)[C@H](CCC(F)(F)F)[C@@H](C(N)=O)c1ccccc1)N=C2c1ccccc1 [Example 21, (2R,3R)—N1-((S)-9-Methoxy-2-oxo-5-phenyl-2,3-dihydro-1H-benzo[e][1,4]diazepin-3-yl)-3-phenyl-2-(3,3,3-trifluoropropyl)succinamide] | ≥ 30 min | Antitumor Activity in TALL-1 (LCK), QD dosing ([2]; Dose 40 (unit not given)): 2.7 LCK; antitumor activity with oral administration (PO) [2]: showed antitumor activity
17 | Cc1cccc2c1NC(=O)[C@@H](NC(=O)[C@H](CCC(F)(F)F)[C@@H](C(N)=O)c1ccccc1)N=C2c1ccc(F)cc1 [Example 27, (2R,3R)—N1-((S)-5-(4-Fluorophenyl)-9-methyl-2-oxo-2,3-dihydro-1H-benzo[e][1,4]diazepin-3-yl)-3-phenyl-2-(3,3,3-trifluoropropyl)succinamide] | ≥ 30 min | IC50 [3]: 15.3 nM
18 | Cc1cccc2c1NC(=O)[C@@H](NC(=O)[C@H](CCC(F)(F)F)[C@@H](C(N)=O)c1conc1C)N=C2c1cccc(C(F)(F)F)c1 [Example 28, (2R,3R)—N1-((S)-9-Methyl-2-oxo-5-(3-(trifluoromethyl)phenyl)-2,3-dihydro-1H-benzo[e][1,4]diazepin-3-yl)-3-(3-methylisoxazol-4-yl)-2-(3,3,3-trifluoropropyl)succinamide] | ≥ 30 min | –
19 | Cc1cccc2c1NC(=O)[C@@H](NC(=O)[C@H](CCC(F)(F)F)[C@@H](C(N)=O)c1ccccc1)N=C2c1cccc(C(F)(F)F)c1 [Example 29, (2R,3R)—N1-((S)-9-Methyl-2-oxo-5-(3-(trifluoromethyl)phenyl)-2,3-dihydro-1H-benzo[e][1,4]diazepin-3-yl)-3-phenyl-2-(3,3,3-trifluoropropyl)succinamide] | ≥ 30 min | –
20 | Cc1cccc2c1NC(=O)[C@@H](NC(=O)[C@H](CCC(F)(F)F)[C@@H](C(N)=O)c1conc1C)N=C2c1cccc(Cl)c1 [Example 32, (2R,3R)—N1-((S)-5-(3-Chlorophenyl)-9-methyl-2-oxo-2,3-dihydro-1H-benzo[e][1,4]diazepin-3-yl)-3-(3-methylisoxazol-4-yl)-2-(3,3,3-trifluoropropyl)succinamide] | ≥ 30 min | –
21 | Cc1cccc2c1NC(=O)[C@@H](NC(=O)[C@H](CCC(F)(F)F)[C@@H](C(N)=O)c1ccccc1)N=C2c1cccc(C(F)F)c1 [Example 34, (2R,3R)—N1-((S)-5-(3-(Difluoromethyl)phenyl)-9-methyl-2-oxo-2,3-dihydro-1H-benzo[e][1,4]diazepin-3-yl)-3-phenyl-2-(3,3,3-trifluoropropyl)succinamide] | ≥ 30 min | –
22 | NC(=O)[C@@H](c1ccccc1)[C@@H](CCC(F)(F)F)C(=O)N[C@H]1N=C(c2cccc(F)c2)c2cccc(OC3CC3)c2NC1=O [Example 35, (2R,3R)—N1-((S)-9-Cyclopropoxy-5-(3-fluorophenyl)-2-oxo-2,3-dihydro-1H-benzo[e][1,4]diazepin-3-yl)-3-phenyl-2-(3,3,3-trifluoropropyl)succinamide] | ≥ 30 min | –
23 | COc1cccc2c1NC(=O)[C@@H](NC(=O)[C@H](CCC(F)(F)F)[C@@H](C(N)=O)c1ccc(Cl)cc1)N=C2c1ccccc1 [Example 36, (2R,3R)-3-(4-Chlorophenyl)-N1-((S)-9-methoxy-2-oxo-5-phenyl-2,3-dihydro-1H-benzo[e][1,4]diazepin-3-yl)-2-(3,3,3-trifluoropropyl)succinamide] | ≥ 30 min | –
